For orientation: Km means the substrate concentration at which the rate is half of its maximum.

Bounds are passed on as bounds.

The values below come from article PMC6279831, “Reconstructing the evolutionary history of F420-dependent dehydrogenases” (Scientific Reports, 2018).

The subject of assay [1] is AncD1. Also on record: steady-state kinetics with 20 uM F420, absorbance decrease at 400 nm, pH 7.5, 25 °C. The note with it: 20 uM F420, pH 7.5, 25 °C; substrate. The protocol:
Sugars (phosphorylated as well as non-phosphorylated) and alcohols were tested as substrates. D-glucose-6-phosphate (G6P) was used as a prototype substrate to initially verify activity. Other 6-phosphorylated sugars tested were: D-fructose-6-phosphate, D-mannose-6-phosphate and D-glucosamine-6-phosphate. D-glucose, D-fructose, D-mannose, D-xylose, D-galactose-1-phosphate, D-glucose-1-phosphate, isopropanol, isobutanol, butanol and cyclohexanol were also tested for activity. Kinetics of all enzymes was measured in a Synergy MX microplate reader (BioTek) using 96-well F-bottom plates (Greiner Bio-One GmbH) at 25 °C. Assays were performed in a volume of 200 µL, containing 20 µM F420, 50–100 nM of enzyme and varying concentrations of the substrates in buffer (50 mM KPi, pH 7.5). Reaction was started by adding 100 µL of enzyme. All measurements were followed at λ = 400 nm for 3 min. The observed rates (kobs) were calculated by using a molecular extinction coefficient of ε400 (F420) = 25.7 mM^−1cm^−1. All experiments were repeated three times.

For assay [2], the target named is AncD1. Briefly: fluorescence quenching of FMN (ex […] nm, em […] nm), one-site fit. Format: binding. The note with it: 0.1 µM cofactor, 25 °C; apparent KD; read-out: FGD-Noca (FSD-Noca) / kcat [s^-1].
Assay [3] concerns the target T1, FGD-Noca (FSD-Noca) (Nocardioidaceae bacterium Broad-1, UniProt E9V3D1).
T1 construct: full-length, codon-optimised, expressed in E. coli TOP10 (pBAD) as native protein, no SUMO; purified by anion exchange
The assay is described as above. Format: binding. The note with it: read-out: FGD-Noca (FSD-Noca) / kcat [s^-1].

The target in assay [4] is T2, FGD-Cryar (FSD-Cryar) (Cryptosporangium arvum, UniProt A0A010YY07).
T2 construct: gene CryarDRAFT_1153
The description is as above. The conditions noted are these: read-out: FGD-Noca (FSD-Noca) / kcat [s^-1]. Format: binding.

For the compound `O=P(O)(O)OC[C@H]1OC(O)(CO)[C@@H](O)[C@@H]1O` (stereo partly drawn) [D-fructose-6-phosphate], in assay [1], the Km is 45 ± 15 mM.

With `O=P(O)(O)OC[C@H]1OC(O)[C@H](O)[C@@H](O)[C@@H]1O` (stereo partly drawn) [D-glucose-6-phosphate], the Km in assay [1] was determined as 1 ± 0.19 mM.

`O=P(O)(O)OC[C@H]1OC(O)[C@@H](O)[C@@H](O)[C@@H]1O` (stereo partly drawn) [D-mannose-6-phosphate]: in assay [1], the Km was found to be 7.2 ± 4.7 mM.

On to `Cc1cc2nc3c(=O)[nH]c(=O)nc-3n(C[C@H](O)[C@H](O)[C@H](O)COP(=O)(O)O)c2cc1C` [FMN], for which the Kd in assay [2], in assay [3] and in assay [4] was above 150 µM throughout.
